Our source for the IC50 values is patent US20240317714A1, “3-[(1H-PYRAZOL-R-YL)OXY]PYRAZIN-2-AMINE COMPOUNDS AS HPK1 INHIBITOR AND USE THEREOF” (BeiGene, Ltd., priority 2020, published 2024).

The term IC50 denotes the midpoint of a concentration-inhibition curve.

The target of assay [1] is HPK1 kinase (aal-346. Life Technologies) (Homo sapiens (Human), UniProt Q92918). Briefly: HPK Kinase Activity Assay at 1 mM ATP (TR-FRET). The assay is classed as biochemical. Particulars: HPK1 kinase 40 nM, 0.5 μM STK1 substrate, read-out: Enzymatic activity IC50. For orientation: Time-resolved FRET reads energy transfer from a long-lived donor to a nearby acceptor.
Chain of HPK1 kinase (aal-346. Life Technologies) (Q92918 1-346): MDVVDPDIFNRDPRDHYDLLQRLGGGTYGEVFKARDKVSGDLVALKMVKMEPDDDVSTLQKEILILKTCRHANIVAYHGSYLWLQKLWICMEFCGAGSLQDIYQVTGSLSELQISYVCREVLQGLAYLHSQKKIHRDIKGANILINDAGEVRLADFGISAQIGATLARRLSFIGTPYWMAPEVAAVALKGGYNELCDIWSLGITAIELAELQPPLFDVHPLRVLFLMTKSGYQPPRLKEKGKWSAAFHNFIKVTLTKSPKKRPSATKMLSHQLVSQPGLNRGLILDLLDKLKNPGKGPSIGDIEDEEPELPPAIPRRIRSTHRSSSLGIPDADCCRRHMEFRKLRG
For assay [2], the system named is pSLP76(S376) level in Jurkat cell line. Kind of assay: Cellular pSLP76(S376) HTRF Assay. Type of assay: cell-based. Particulars: Homo sapiens, Jurkat, Jurkat cells, 2 h compound treatment, stimulated with 0.05 μg/mL anti-human CD3 (OKT3) for 30 min.

Each structure is given as a SMILES string.

Regarding `Cc1cc(-c2cnc(N)c(Oc3cnn(C4CCN(C)CC4)c3)n2)cc(C)c1CNC(=O)NC1(C(F)(F)F)CC1` [Example A64, 1-(4-(5-amino-6-((1-(1-methylpiperidin-4-yl)-1H-pyrazol-4-yl)oxy)pyrazin-2-yl)-2,6-dimethylbenzyl)-3-(1-(trifluoromethyl)cyclopropyl)urea], the IC50 in assay [1] is 16 nM; in assay [2], 45 nM.

`Cc1cc(-c2cnc(N)c(Oc3cnn(C4CCN(C)CC4)c3)n2)cc(C2(O)CCCC2)c1` [Example A65, 1-(3-(5-amino-6-((1-(1-methylpiperidin-4-yl)-1H-pyrazol-4-yl)oxy)pyrazin-2-yl)-5-methylphenyl)cyclopentan-1-ol]: the figures for the IC50 in assay [1] and in assay [2] were 18 nM and 84 nM, respectively.

Turning to `Cc1cc(-c2cnc(N)c(Oc3cnn(C4CCN(C)CC4)c3)n2)cc(C)c1N1CCOCC1` [Example A66, 5-(3,5-dimethyl-4-morpholinophenyl)-3-((1-(1-methylpiperidin-4-yl)-1H-pyrazol-4-yl)oxy)pyrazin-2-amine], the IC50 was 36 nM in assay [1] and 132 nM in assay [2].

In the case of `Cc1cc(-c2cnc(N)c(Oc3cnn(C4CCN(C)CC4)c3)n2)cc(C)c1CNc1ncco1` [Example A67, N-(4-(5-amino-6-((1-(1-methylpiperidin-4-yl)-1H-pyrazol-4-yl)oxy)pyrazin-2-yl)-2,6-dimethylbenzyl)oxazol-2-amine], the IC50 in assay [1] was 17 nM; in assay [2] it was 76 nM.

With `Cc1cc(-c2cnc(N)c(Oc3cnn(C4CCN(C)CC4)c3)n2)cc(C)c1CNc1ncn(C)n1` [Example A68, 5-(3,5-dimethyl-4-(((1-methyl-1H-1,2,4-triazol-3-yl)amino)methyl)phenyl)-3-((1-(1-methylpiperidin-4-yl)-1H-pyrazol-4-yl)oxy)pyrazin-2-amine], the IC50 in assay [1] is 51 nM; in assay [2], 157 nM.

Consider `Cc1cc(-c2cnc(N)c(Oc3cnn(C4CCN(C)CC4)c3)n2)cc(C2(O)CCOC2)c1` (stereo not shown) [Example A69, 3-(3-(5-amino-6-((1-(1-methylpiperidin-4-yl)-1H-pyrazol-4-yl)oxy)pyrazin-2-yl)-5-methylphenyl)tetrahydrofuran-3-ol], for which the IC50 in assay [1] worked out at 57 nM; in assay [2], 84 nM.

`CCC(C)(O)c1cc(C)cc(-c2cnc(N)c(Oc3cnn(C4CCN(C)CC4)c3)n2)c1` (stereo not shown) [Example A70, 2-(3-(5-amino-6-((1-(1-methylpiperidin-4-yl)-1H-pyrazol-4-yl)oxy)pyrazin-2-yl)-5-methylphenyl)butan-2-ol]: the IC50 in assay [1] was 6.7 nM; in assay [2], 76 nM.

`Cc1cc(-c2cnc(N)c(Oc3cnn(C4CCN(C)CC4)c3)n2)cc(C)c1CNS(=O)(=O)N1CCOCC1` [Example A71, N-(4-(5-amino-6-((1-(1-methylpiperidin-4-yl)-1H-pyrazol-4-yl)oxy)pyrazin-2-yl)-2,6-dimethylbenzyl)morpholine-4-sulfonamide]: the figures for the IC50 in assay [1] and in assay [2] were 26 nM and 39 nM, respectively.

On to `CN1CCC(n2cc(Oc3nc(-c4cc(N5CCOCC5)cc(C5(O)COC5)c4)cnc3N)cn2)CC1` [Example A72, 3-(3-(5-amino-6-((1-(1-methylpiperidin-4-yl)-1H-pyrazol-4-yl)oxy)pyrazin-2-yl)-5-morpholinophenyl)oxetan-3-ol], for which the results for the IC50 in assay [1] and in assay [2] were 5.6 nM and 59 nM, respectively.

On to `Cc1cc(-c2cnc(N)c(Oc3cnn(C4CCN(C)CC4)c3)n2)cc(C2(O)COC2)c1C` [Example A73, 3-(5-(5-amino-6-(1-(1-methylpiperidin-4-yl)-1H-pyrazol-4-yloxy)pyrazin-2-yl)-2,3-dimethylphenyl)oxetan-3-ol], for which the IC50 was 11 nM in assay [1] and 59 nM in assay [2].

As for `Cc1cc(-c2cnc(N)c(Oc3cnn(C4CCN(C)CC4)c3)n2)cc([C@]2(O)CCOC2)c1` [Example A74B, (R)-3-(3-(5-amino-6-((1-(1-methylpiperidin-4-yl)-1H-pyrazol-4-yl)oxy)pyrazin-2-yl)-5-methylphenyl)tetrahydrofuran-3-ol], the IC50 amounted to 10 nM in assay [1] and 41 nM in assay [2].

Consider `Cc1cc(-c2cnc(N)c(Oc3cnn(C4CCN(C)CC4)c3)n2)cc(C)c1C1=CCOCC1` [Example A75, 5-(4-(3,6-dihydro-2H-pyran-4-yl)-3,5-dimethylphenyl)-3-((1-(1-methylpiperidin-4-yl)-1H-pyrazol-4-yl)oxy)pyrazin-2-amine], for which the IC50 came out at 29 nM in assay [1] and 129 nM in assay [2].

Turning to `COC[C@@H]1COCCN1c1cc(-c2cnc(N)c(Oc3cnn(C4CCN(C)CC4)c3)n2)cc(C2(O)COC2)c1` [Example A76, (R)-3-(3-(5-amino-6-((1-(1-methylpiperidin-4-yl)-1H-pyrazol-4-yl)oxy)pyrazin-2-yl)-5-(3-(methoxymethyl)morpholino)phenyl)oxetan-3-ol], the values for the IC50 in assay [1] and in assay [2] were 5.8 nM and 62 nM, respectively.

On to `Cc1cc(-c2cnc(N)c(Oc3cnn(C4CCN(C)CC4)c3)n2)cc(C)c1N1CC2(COC2)C1` [Example A77, 5-(3,5-dimethyl-4-(2-oxa-6-azaspiro[3.3]heptan-6-yl)phenyl)-3-((1-(1-methylpiperidin-4-yl)-1H-pyrazol-4-yl)oxy)pyrazin-2-amine], for which the results for the IC50 in assay [1] and in assay [2] were 38 nM and 91 nM, respectively.

Consider `CN1CCC(n2cc(Oc3nc(-c4cc(N5CC6(COC6)C5)cc(C5(O)COC5)c4)cnc3N)cn2)CC1` [Example A78, 3-(3-(5-amino-6-((1-(1-methylpiperidin-4-yl)-1H-pyrazol-4-yl)oxy)pyrazin-2-yl)-5-(2-oxa-6-azaspiro[3.3]heptan-6-yl)phenyl)oxetan-3-ol], for which the IC50 in assay [1] was found to be 5.5 nM; in assay [2] it was 51 nM.

In the case of `CN1CCC(n2cc(Oc3nc(-c4cc(C5CCOCC5)cc(C5(O)COC5)c4)cnc3N)cn2)CC1` [Example A79, 3-(3-(5-amino-6-((1-(1-methylpiperidin-4-yl)-1H-pyrazol-4-yl)oxy)pyrazin-2-yl)-5-(tetrahydro-2H-pyran-4-yl)phenyl)oxetan-3-ol], the IC50 in assay [1] is 12 nM; in assay [2], 71 nM.

Turning to `C[C@@H]1COCCN1c1cc(-c2cnc(N)c(Oc3cnn(C4CCN(C)CC4)c3)n2)cc([C@@]2(O)CCOC2)c1` [Example A80A, (S)-3-(3-(5-amino-6-((1-(1-methylpiperidin-4-yl)-1H-pyrazol-4-yl)oxy)pyrazin-2-yl)-5-((R)-3-methylmorpholino)phenyl)tetrahydrofuran-3-ol], the figures for the IC50 in assay [1] and in assay [2] were 29 nM and 194 nM, respectively.

For `C[C@@H]1COCCN1c1cc(-c2cnc(N)c(Oc3cnn(C4CCN(C)CC4)c3)n2)cc([C@]2(O)CCOC2)c1` [Example A80B, (R)-3-(3-(5-amino-6-((1-(1-methylpiperidin-4-yl)-1H-pyrazol-4-yl)oxy)pyrazin-2-yl)-5-((R)-3-methylmorpholino)phenyl)tetrahydrofuran-3-ol], the IC50 came out at 5.4 nM in assay [1] and 48 nM in assay [2].

`CC#Cc1c(C)cc(-c2cnc(N)c(Oc3cnn(C4CCN(C)CC4)c3)n2)cc1C1(O)COC1` [Example A81, 3-(5-(5-amino-6-((1-(1-methylpiperidin-4-yl)-1H-pyrazol-4-yl)oxy)pyrazin-2-yl)-3-methyl-2-(prop-1-yn-1-yl)phenyl)oxetan-3-ol]: the IC50 was determined as 37 nM in assay [1] and 72 nM in assay [2].

Consider `COCc1cc(-c2cnc(N)c(Oc3cnn(C4CCN(C)CC4)c3)n2)cc(C2(O)COC2)c1` [Example A82, 3-(3-(5-amino-6-((1-(1-methylpiperidin-4-yl)-1H-pyrazol-4-yl)oxy)pyrazin-2-yl)-5-(methoxymethyl)phenyl)oxetan-3-ol], for which the IC50 in assay [1] was found to be 37 nM; in assay [2], 125 nM.

For `Cc1cc(-c2cnc(N)c(Oc3cnn(C4CCN(C)CC4)c3)n2)cc(C2(O)CCOC2)c1N1CC2(COC2)C1` (stereo not shown) [Example A83, 3-(5-(5-amino-6-((1-(1-methylpiperidin-4-yl)-1H-pyrazol-4-yl)oxy)pyrazin-2-yl)-3-methyl-2-(2-oxa-6-azaspiro[3.3]heptan-6-yl)phenyl)tetrahydrofuran-3-ol], the IC50 in assay [1] was determined as 17 nM; in assay [2], 105 nM.

As for `Cc1cc(-c2cnc(N)c(Oc3cnn(C4CCN(C)CC4)c3)n2)cc(C2(O)COC2)c1Cl` [Example A84, 3-(5-(5-amino-6-((1-(1-methylpiperidin-4-yl)-1H-pyrazol-4-yl)oxy)pyrazin-2-yl)-2-chloro-3-methylphenyl)oxetan-3-ol], the IC50 in assay [1] came out at 58 nM; in assay [2], 83 nM.

As to `CN1CCC(n2cc(Oc3nc(-c4cc(N5CCC[C@H]5CO)cc(C5(O)COC5)c4)cnc3N)cn2)CC1` [Example A85, (S)-3-(3-(5-amino-6-((1-(1-methylpiperidin-4-yl)-1H-pyrazol-4-yl)oxy)pyrazin-2-yl)-5-(2-(hydroxymethyl)pyrrolidin-1-yl)phenyl)oxetan-3-ol], the IC50 in assay [1] was 3.7 nM; in assay [2] it was 28 nM.

On to `Cc1cc(-c2cnc(N)c(Oc3cnn(C4CCN(C)CC4)c3)n2)cc(C2(O)COC2)c1C1=CCOCC1` [Example A86, 3-(5-(5-amino-6-((1-(1-methylpiperidin-4-yl)-1H-pyrazol-4-yl)oxy)pyrazin-2-yl)-2-(3,6-dihydro-2H-pyran-4-yl)-3-methylphenyl)oxetan-3-ol], for which the values for the IC50 in assay [1] and in assay [2] were 40 nM and 130 nM, respectively.

On to `Cc1cc(-c2cnc(N)c(Oc3cnn(C4CCN(C)CC4)c3)n2)cc(C2(O)COC2)c1C1OCCO1` [Example A87, 3-(5-(5-amino-6-((1-(1-methylpiperidin-4-yl)-1H-pyrazol-4-yl)oxy)pyrazin-2-yl)-2-(1,3-dioxolan-2-yl)-3-methylphenyl)oxetan-3-ol], for which the figures for the IC50 in assay [1] and in assay [2] were 56 nM and 89 nM, respectively.

For `Cc1cc(-c2cnc(N)c(Oc3cnn(C4CCN(C)CC4)c3)n2)cc(C2(O)CCCOC2)c1` (stereo not shown) [Example A88, 3-(3-(5-amino-6-((1-(1-methylpiperidin-4-yl)-1H-pyrazol-4-yl)oxy)pyrazin-2-yl)-5-methylphenyl)tetrahydro-2H-pyran-3-ol], the IC50 was determined as 34 nM in assay [1] and 85 nM in assay [2].
